Here are results for ten compounds from article PMC7318243, “Computationally Empowered Workflow Identifies Novel Covalent Allosteric Binders for KRAS^G12C” (Chemmedchem, 2020).

Experiment [1] has as its target T1, KRAS^G12C (recombinant KRAS mutant G12C, C51S, C80L, C118S) (Homo sapiens, UniProt P01116, C118S/C51S/C80L/G12C).
T1 construct: made in house
Briefly: Covalent binding assay by mass spectrometry (intact mass, % covalent adduct). The settings on record: for MS assay [% binding] (KRAS^G12C bound fraction): 25 µM protein, 25 µM compound, room temperature, 2 h. The method, then:
(§1) One of the most synthetically accessible compounds, 1,6‐naphthyridin‐5(6H)‐one (1), was prepared (Table 1; Scheme S1). Structurally close to 1, isoquinolin‐1(2H)‐one 2 derivatives were also considered for the exploration of structure‐activity relationships (SAR). To measure the proportion of inhibitor reacting with Cys12 of the KRAS^G12C mutant, the bound/unbound protein ratio was quantified by mass spectrometry (MS). Then, the inhibition potency of these compounds towards KRAS^G12C was evaluated in biochemical assays measuring the activation of GDP‐bound KRAS^G12C or KRAS^WT by SOS1.19 […]
3.4 Covalent binding assay by mass spectrometry
The percentage of covalent adduct formation at KRAS G12C was determined by intact mass determination. To this end, 25 µM recombinant KRAS mutant (G12C , C51S, C80L, C118S) was incubated with 25 µM compound (1% v/v DMSO final concentration) in 50 mM Tris, pH 8.0, 50 mM NaCl at room temperature for 2 h. Reaction mixture (20 µL) was acidified by addi tion of 4% v/v TFA (4 µL). LC-MS analysis was performed using a Waters SYNAPT G2 -S quadrupole time -of-flight mass spectrometer connected to a Waters nanoA CQUITY UPLC system. Samples were loaded onto a 2.1 × 5 mm MassPrep C4 guard column (Waters) and desalted with a short gradient (3 min) of increasing concentration of acetonitrile at a flow rate of 100 µL/min. Spectra were analyzed by using MassLynx v4.1 software and deconvoluted with the MaxEnt1 algorithm. Percent conversion was determined by the ratio of signal intensities of […] and KRASG12C + inhibitor. […]

The target in another experiment is T2, KRAS^G12C (Homo sapiens, UniProt P01116, G12C).
T2 construct: KRASG12C (aa 1–169, G12C) were produced for the biochemical assay; made in house
Briefly: Biochemical assay: KRAS^G12C activation by SOS1CAT (HTRF, fluorescent GTP loading). Conditions: for IC50: 180 min pre-incubation with KRAS before addition of SOS1. The method, then: as §1
(§2) 3.3 Biochemical activity assays
(§3) Measurement of (i) KRASG12C activation by SOS1CAT and (ii) wild-type KRAS activation by SOS1CAT was performed following the previously described protocol, [19] with a pre-incubation time of the test compound with KRAS proteins extended to 180 min before addi tion of SOS1.
(§4) This assay quantifies SOS1 CAT mediated loading of KRAS G12C–GDP with a fluorescent GTP analogue. Detection of successful loading was achieved by measuring resonance energy transfer from anti-GST-terbium (FRET donor) bound to GST -KRASG12C to the loaded fluorescent GTP analogue (FRET acceptor). The fluorescent GTP analogue EDA –GTP–DY-647P1 [2'/3'-O-(2-aminoethyl-carbamoyl)guanosine-5'-triphosphate labelled with DY-647P1 (Dyomics GmbH, Germany)] was synthesized by Jena Bioscience (Germany) a nd supplied as a 1 mM aqueous solution. A KRASG12C working solution was prepared in assay buffer [10 mM HEPES pH 7.4 (AppliChem), 150 mM NaCl (Sigma), 5 mM MgCl2 (Sigma), 1 mM DTT (Thermo Fisher), 0.05% BSA Fraction V pH 7.0 (ICN Biomedicals), 0.0025% (v/v) Igepal (Sigma)] containing 100 nM GST-KRASG12C and 2 nM anti-GST-terbium (Cisbio, France). A SOS1 CAT working solution was prepared in an assay buffer containing 20 nM SOS1CAT and 200 nM EDA–GTP–DY-647P1. An inhibitor control solution was prepared in an assay buffer containing 200 nM EDA–GTP–DY-647P1 without […]
SOS1CAT. All steps of the assay were performed at 20 °C. A volume of 2.5 µL of the KRASG12C working solution was added to all wells of the test plate using a Multidrop dispenser (Thermo LabSystems). After 180 min, 2.5 µL of the SOS1CAT working solution was added to all wells, except for the inhibitor control solution wells. After 30 min incubation, HTRF was measured. […]
(§5) SYNAPT G2-S quadrupole time-of-flight mass spectrometer connected to a Waters nanoAcquity UPLC system. Samples were loaded on a 2.1 x 5 mm mass prep C4 guard column (Waters) and desalted with a short grad ient (3 min) of increasing concentrations of acetonitrile at a flow rate of 100 µL/min. Spectra were analyzed by using MassLynx v4.1 software and deconvoluted with the MaxEnt1 algorithm. Percent of conversion was determined by the ratio of signal intensiti es of apo-KRAS and KRAS + inhibitor.

In another experiment the target is T3, KRAS^WT (Homo sapiens, UniProt P01116).
T3 construct: The proteins KRASWT (aa 1–169, wild type), SOS1CAT (aa 564–); made in house
The experiment in a line: Biochemical assay: KRAS^WT activation by SOS1CAT (HTRF, fluorescent GTP loading). The settings on record: 180 min pre-incubation with KRAS before addition of SOS1. The method, then: as §1, §2, §3, §4
SOS1CAT. All steps of the assay were performed at 20 °C. A volume of 2.5 µL of the KRASG12C working solution was added to all wells of the test plate using a Multidrop dispenser (Thermo LabSystems). After 180 min, 2.5 µL of the SOS1CAT working solution was added to all wells, except for the inhibitor control solution wells. After 30 min incubation, HTRF was measured.
In the KRASWT activation by SOS1cat assay, human SOS1CAT mediated loading of GST-KRASWT– GDP was quantified with a fluorescent GTP analogue. The assay was performed as described above for the KRASG12C activation. […]
as §5
(In general: TR-FRET usually uses a lanthanide donor and a delayed reading to cut background.)

By IC50 is commonly meant the concentration that inhibits the measured activity by half. A lower IC50 goes with higher potency. With `C=CC(=O)N1CCC(c2cc3cc(Cl)c(-c4c(O)cccc4F)cc3c(=O)[nH]2)C1` (stereo not drawn) [Compound 7, 6-Chloro-7-(2-fluoro-6-hydroxyphenyl)-3-[1-(prop-2-enoyl)pyrrolidin-3-yl]isoquinolin-1(2H)-one], the “MS assay [% binding] (KRAS^G12C bound fraction)” value in experiment [1] was found to be 51%. Besides, the IC50 was 14.6 µM against KRAS^G12C and > 20 µM against KRAS^WT.

On to `C=CC(=O)N1CCC(c2cc3ccc(-c4cccc5ncccc45)cc3c(=O)[nH]2)C1` (stereo not drawn) [Compound 6, 3-[1-(Prop-2-enoyl)pyrrolidin-3-yl]-7-(quinolin-5-yl)isoquinolin-1(2H)-one], for which the “MS assay [% binding] (KRAS^G12C bound fraction)” value in experiment [1] turned out to be 20%. The values for the IC50 against KRAS^G12C and against KRAS^WT were > 16 µM and > 20 µM, respectively.

Take `C=CC(=O)N1CCCC(c2cc3ccc(-c4c(O)cccc4F)cc3c(=O)[nH]2)C1` (stereo not drawn) [Compound 9]: the “MS assay [% binding] (KRAS^G12C bound fraction)” value in experiment [1] is reported as 0%. Besides, on KRAS^G12C, the “KRAS^G12C activity, in words” value was “inactive” and the IC50 was > 20 µM. For the same compound, the IC50 against KRAS^WT was > 20 µM.

Turning to `C=CC(=O)N1CCC(c2cc3ccc(-c4cc(F)cc(F)c4)cc3c(=O)[nH]2)C1` (stereo not drawn) [Compound 4, 7-(3,5-Difluorophenyl)-3-[1-(prop-2-enoyl)pyrrolidin-3-yl]isoquinolin-1(2H)-one], the “MS assay [% binding] (KRAS^G12C bound fraction)” value in experiment [1] came out at 0%. Further, the IC50 against KRAS^G12C and on KRAS^WT was > 20 µM in each case.

Take `C=CC(=O)N1CCC(c2nc3ccc(-c4c(O)cccc4F)cc3c(=O)[nH]2)C1` (stereo not drawn) [Compound 11, 6-(2-Fluoro-6-hydroxyphenyl)-2-[1-(prop-2-enoyl)pyrrolidin-3-yl]quinazolin-4(3H)-one]: in experiment [1], the “MS assay [% binding] (KRAS^G12C bound fraction)” value worked out at 59%. Further, the IC50 against KRAS^G12C is 4.9 µM; on KRAS^WT, > 20 µM.

With `C=CC(=O)N1CCC(c2cc3ccc(-c4c(O)cccc4F)cc3c(=O)[nH]2)CC1` [Compound 8], the “MS assay [% binding] (KRAS^G12C bound fraction)” value in experiment [1] came out at 0%. Besides, on KRAS^G12C, the “KRAS^G12C activity, in words” value was “inactive” and the IC50 is > 20 µM. Moreover, at KRAS^WT, the IC50 was > 20 µM.

As to `C=CC(=O)N1CCC(c2cc3ccc(-c4ccc(F)cc4F)cc3c(=O)[nH]2)C1` (stereo not drawn) [Compound 3, 7-(2,4-Difluorophenyl)-3-[1-(prop-2-enoyl)pyrrolidin-3-yl]isoquinolin-1(2H)-one], in experiment [1], the “MS assay [% binding] (KRAS^G12C bound fraction)” value is 34%. For the same compound, the IC50 on KRAS^G12C is 5 µM; at KRAS^WT, > 20 µM.

Consider `C=CC(=O)N1CCC(c2cc3ccc(-c4c(O)cccc4F)cc3c(=O)n2C)C1` (stereo not drawn) [Compound 10], for which, in experiment [1], the “Ability to bind / react with Cys12 of KRAS^G12C, in words” value is recorded as “inability to bind KRAS^G12C” and the “MS assay [% binding] (KRAS^G12C bound fraction)” value amounted to 11%. Besides, on KRAS^G12C, the “KRAS^G12C activity, in words” value is “inactive” and the IC50 was > 20 µM. Further, the IC50 on KRAS^WT was > 20 µM.

With `C=CC(=O)N1CCC(c2cc3cc(O)c(-c4ncccc4F)cc3c(=O)[nH]2)C1` (stereo not drawn) [Compound 12], in experiment [1], the “Ability to bind / react with Cys12 of KRAS^G12C, in words” value is “unable to react with Cys12 of KRAS^G12C” and the “MS assay [% binding] (KRAS^G12C bound fraction)” value came out at 0%.

`C=CC(=O)N1CCC(c2cc3ccc(-c4ccccc4CC)cc3c(=O)[nH]2)C1` (stereo not drawn) [Compound 5, 7-(2-Ethylphenyl)-3-[1-(prop-2-enoyl)pyrrolidin-3-yl]isoquinolin-1(2H)-one]: the “MS assay [% binding] (KRAS^G12C bound fraction)” value in experiment [1] was found to be 60%. The IC50 against KRAS^G12C is 8 µM; against KRAS^WT, > 20 µM.
